Results on five compounds are retold here after PMC3222274 (Molecular and biochemical parasitology, 2011).

One series relates to CC(=O)SCC[N+](C)(C)C. The experiment in a line: Ellman assay, transfected COS-7 extract, fit with Km, Kss and b. The format is biochemical, Dictyocaulus viviparus. The note with it: pH 7, 0.3 mM DTNB, 167 mM NaCl, substrate-inhibition model. (In general: DTNB colorimetry detects thiols as they appear.)
A further series deals with CCCC(=O)SCC[N+](C)(C)C. The description is as above. The format is biochemical, Dictyocaulus viviparus. The settings on record: pH 7, 0.3 mM DTNB, 167 mM NaCl, substrate-activation model.
Another series has as its system CCC(=O)SCC[N+](C)(C)C. The description is as above. The note with it: pH 7, 0.3 mM DTNB, 167 mM NaCl, substrate-inhibition model. The format is biochemical, Dictyocaulus viviparus.
Another series concerns the target Dv-ACE-1 (Dictyocaulus viviparus, UniProt Q0H0R6). The series can be described thus: Ellman assay, transfected COS-7 extract, logistic fit. The format is biochemical.

A value given as a limit tells only on which side of the number the result lay.

For Dv-ACE-1 (Dictyocaulus viviparus), the Km with CC(=O)SCC[N+](C)(C)C is recorded as 7.51 ± 0.21 × 10^−4 M; with CCCC(=O)SCC[N+](C)(C)C it was 4.32 ± 1.61 × 10^−5 M; with CCC(=O)SCC[N+](C)(C)C, 1.59 ± 0.03 × 10^−3 M. Consider `CNC(=O)Oc1ccc2c(c1)[C@]1(C)CCN(C)[C@@H]1N2C` [physostigmine], for which the IC50 – broadly, the midpoint of a concentration-inhibition curve – against Dv-ACE-1 turned out to be 0.126 µM. In the case of `C=CC[N+](C)(C)c1ccc(CCC(=O)CCc2ccc([N+](C)(C)CC=C)cc2)cc1` [BW284c51], on Dv-ACE-1, it took 0.303 µM to reach half-maximal inhibition (IC50). Against the preceding compound, the IC50 is about 2.4-fold higher. The same measure, in the same setting: as for `CC(C)NP(=O)(NC(C)C)OP(=O)(NC(C)C)NC(C)C` [iso-OMPA], the figure is more than 3000 µM; as for `CCN(CC)C(C)CN1c2ccccc2Sc2ccccc21` (stereo not shown) [ethopropazine], 137 µM.
